Data from PubChem BioAssay AID248 (DTP/NCI, 2004).
Where “and” joins values, the source holds several entries; their conditions need not be identical. Equal entries are not always repeated. Inconclusive results and toxic doses are left out. Rule as the data show it: active = T/C of 150% or more; inactive = T/C below 125%.

Tested on: L1210 leukemia ip in BDF1 mice, survival T/C
Assay: NCI In Vivo Anticancer Drug Screen. Data for tumor model L1210 Leukemia (intraperitoneal) in B6D2F1 (BDF1) mice
Conditions: endpoint: mean survival time, higher = longer survival
Outline: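 Transplantable tumor model; survival measured in treated vs vehicle control mice. Value = treated/control.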

[1] = dose: 100.0 mg/kg/injection, schedule: Q01DX009 (ip), vehicle: saline
[2] = dose: 100.0 mg/kg/injection, schedule: Q04DX003 (ip), vehicle: saline
[3] = dose: 200.0 mg/kg/injection, schedule: Q04DX003 (ip), vehicle: saline
[4] = dose: 200.0 mg/kg/injection, schedule: Q01DX001 (ip), vehicle: carboxymethylcellulose (CMC)
[5] = dose: 400.0 mg/kg/injection, schedule: Q01DX001 (ip), vehicle: carboxymethylcellulose (CMC)
[6] = dose: 100.0 mg/kg/injection, schedule: Q01DX001 (ip), vehicle: carboxymethylcellulose (CMC)
[7] = dose: 400.0 mg/kg/injection, schedule: Q04DX003 (ip), vehicle: saline
[8] = dose: 50.0 mg/kg/injection, schedule: Q04DX003 (ip), vehicle: saline
[9] = dose: 50.0 mg/kg/injection, schedule: Q01DX009 (ip), vehicle: saline
[10] = dose: 100.0 mg/kg/injection, schedule: Q04DX003 (ip), vehicle: Klucel (hydroxypropylcellulose) (HPC)
[11] = dose: 200.0 mg/kg/injection, schedule: Q04DX003 (ip), vehicle: Klucel (hydroxypropylcellulose) (HPC)
[12] = dose: 400.0 mg/kg/injection, schedule: Q04DX003 (ip), vehicle: Klucel (hydroxypropylcellulose) (HPC)
[13] = dose: 100.0 mg/kg/injection, schedule: Q01DX001 (ip), vehicle: saline
[14] = dose: 100.0 mg/kg/injection, schedule: Q01DX009 (ip), vehicle: acetone
[15] = dose: 200.0 mg/kg/injection, schedule: Q01DX001 (ip), vehicle: saline
[16] = dose: 400.0 mg/kg/injection, schedule: Q01DX001 (ip), vehicle: saline
[17] = dose: 100.0 mg/kg/injection, schedule: Q04DX002 (ip), vehicle: Klucel (hydroxypropylcellulose) (HPC)
[18] = dose: 200.0 mg/kg/injection, schedule: Q04DX002 (ip), vehicle: Klucel (hydroxypropylcellulose) (HPC)
[19] = dose: 400.0 mg/kg/injection, schedule: Q04DX002 (ip), vehicle: Klucel (hydroxypropylcellulose) (HPC)
[20] = dose: 100.0 mg/kg/injection, schedule: Q01DX009 (ip), vehicle: saline with Tween-80
[21] = dose: 200.0 mg/kg/injection, schedule: Q01DX009 (ip), vehicle: saline with Tween-80
[22] = dose: 400.0 mg/kg/injection, schedule: Q01DX009 (ip), vehicle: saline with Tween-80
[23] = dose: 50.0 mg/kg/injection, schedule: Q01DX009 (ip), vehicle: saline with Tween-80

Measured: T/C

C=CCOCC(O)CNCCCOC (stereo unspecified)
inactive: [1] 107 % of control | [2] 96 % of control | dose: 200.0 mg/kg/injection, schedule: Q01DX009 (ip), vehicle: saline 98 % of control | [3] 98 % of control

O=C(CCl)c1ccc2c(c1)Nc1ccccc1S2
inactive: dose: 50.0 mg/kg/injection, schedule: Q01DX001 (ip), vehicle: carboxymethylcellulose (CMC) 93 % of control | [4] 93 % of control | [5] 96 % of control

CNC(=O)Oc1ccccc1-c1ccccc1
inactive: [6] 100 % of control | [4] 100 % of control | [5] 96 % of control

CCN1OCC(C)(C(=O)OC)C1C (stereo unspecified)
inactive: [2] 102 % of control | [3] 97 % of control | [7] 107 % of control

N#C/C(=C\c1c[nH]c2ccccc12)C(N)=O
inactive: [8] 104 % of control | dose: 100.0 mg/kg/injection, schedule: Q04DX003 (ip), vehicle: saline with Tween-80 93 % of control | [2] 107 % of control | dose: 200.0 mg/kg/injection, schedule: Q04DX003 (ip), vehicle: saline with Tween-80 104 % of control | [3] 95 % of control | dose: 400.0 mg/kg/injection, schedule: Q04DX003 (ip), vehicle: saline with Tween-80 96 % of control | [7] 97 % of control

CC(C)=CCNC1=NCCN1
inactive: dose: 12.5 mg/kg/injection, schedule: Q01DX009 (ip), vehicle: saline 91 % of control | dose: 25.0 mg/kg/injection, schedule: Q01DX009 (ip), vehicle: saline 94 % of control | [9] 99 % of control

C=COC(=O)CCCCCCCCCCCCCCCCC
inactive: [10] 101 % of control | [11] 100 % of control | [12] 103 % of control

O=C(Nc1ccc(Cl)cc1)c1cc(Cl)cc(Cl)c1Br
inactive: [6] 95 % of control | [4] 93 % of control | [5] 91 % of control

NC(=O)n1cncn1
inactive: [13] 90 % of control | [14] 89 % of control | [15] 107 % of control | dose: 200.0 mg/kg/injection, schedule: Q01DX009 (ip), vehicle: acetone 100 % of control | [16] 100 % of control | dose: 400.0 mg/kg/injection, schedule: Q01DX009 (ip), vehicle: acetone 91 % of control

O=C(O)C1Cc2ccccc2-c2ccccc21 (stereo unspecified)
inactive: dose: 75.0 mg/kg/injection, schedule: Q01DX001 (ip), vehicle: saline 102 % of control | dose: 150.0 mg/kg/injection, schedule: Q01DX001 (ip), vehicle: saline 88 % of control | dose: 300.0 mg/kg/injection, schedule: Q01DX001 (ip), vehicle: saline 100 % of control

Nc1nc2nc(N=Nc3ccc(S(=O)(=O)O)cc3)[nH]c2c(=O)[nH]1
inactive: [10] 93 % of control | [11] 93 % of control | [12] 93 % of control

CCOC(=O)c1[nH]c(C)c(CCCC(=O)O)c1C
inactive: dose: 75.0 mg/kg/injection, schedule: Q01DX001 (ip), vehicle: acetone 102 % of control | dose: 150.0 mg/kg/injection, schedule: Q01DX001 (ip), vehicle: acetone 104 % of control

C1CCc2c(c3c(c4c2CCCC4)CCCC3)C1
inactive: [17] 100 % of control | [18] 93 % of control | [19] 97 % of control

COc1c(Cl)cc([N+](=O)[O-])c(OC)c1[N+](=O)[O-]
inactive: dose: 50.0 mg/kg/injection, schedule: Q01DX009 (ip), vehicle: acetone 90 % of control | [8] 98 % of control | dose: 100.0 mg/kg/injection, schedule: Q01DX001 (ip), vehicle: acetone 94 % of control | [14] 90 % of control | [2] 93 % of control | dose: 200.0 mg/kg/injection, schedule: Q01DX001 (ip), vehicle: acetone 98 % of control

COC(=O)c1cncn1C(C)c1ccccc1 (stereo unspecified)
inactive: dose: 25.0 mg/kg/injection, schedule: Q04DX003 (ip), vehicle: saline 97 % of control | [9] 104 % of control | [8] 95 % of control | [1] 109 % of control | [2] 97 % of control and 101 % of control

Nc1ccc2[nH]c(=S)sc2c1
inactive: [20] 104 % of control | [21] 104 % of control | [22] 108 % of control

O=C1OC2CCCCC1CC2 (stereo unspecified)
inactive: [13] 108 % of control | [15] 110 % of control | [16] 87 % of control

CSC(c1ccccc1F)=[N+]1CCCCC1
inactive: dose: 5.0 mg/kg/injection, schedule: Q01DX001 (ip), vehicle: saline 100 % of control | dose: 10.0 mg/kg/injection, schedule: Q01DX001 (ip), vehicle: saline 96 % of control | dose: 20.0 mg/kg/injection, schedule: Q01DX001 (ip), vehicle: saline 95 % of control

CC1CCC2C(C)C3C(CC4C5CC=C6CC(OC7OC(COC8OC(CO)C(OC9OC(C)C(O)C(O)C9O)C(O)C8O)C(O)C(O)C7O)CCC6(C)C5CCC43C)N2C1 (stereo unspecified)
inactive: dose: 50.0 mg/kg/injection, schedule: Q04DX002 (ip), vehicle: Klucel (hydroxypropylcellulose) (HPC) 105 % of control | [17] 102 % of control

CC1(C)CCC2(C)CC=C3OC(=O)CCC3(C)C2C1 (stereo unspecified)
inactive: [20] 92 % of control | [10] 102 % of control | [21] 89 % of control | [11] 98 % of control | [22] 94 % of control | [12] 94 % of control

CNC(=O)Oc1ccc(Nc2ccccc2)cc1
inactive: dose: 100.0 mg/kg/injection, schedule: Q01DX009 (ip), vehicle: Klucel (hydroxypropylcellulose) (HPC) 97 % of control and 104 % of control | [17] 105 % of control and 88 % of control | dose: 200.0 mg/kg/injection, schedule: Q01DX009 (ip), vehicle: Klucel (hydroxypropylcellulose) (HPC) 100 % of control and 104 % of control | [18] 97 % of control and 98 % of control | dose: 400.0 mg/kg/injection, schedule: Q01DX009 (ip), vehicle: Klucel (hydroxypropylcellulose) (HPC) 95 % of control and 104 % of control | [19] 93 % of control and 108 % of control

CC(=O)OC(C1C[C@@]2(C)[C@@H](CC[C@@H]3[C@@H]2CC[C@]2(C)[C@@H](OC(C)=O)CC[C@@H]32)CC1=O)C(F)(F)F (stereo partly specified)
inactive: dose: 50.0 mg/kg/injection, schedule: Q01DX009 (ip), vehicle: carboxymethylcellulose (CMC) 97 % of control | dose: 100.0 mg/kg/injection, schedule: Q01DX009 (ip), vehicle: carboxymethylcellulose (CMC) 89 % of control | dose: 200.0 mg/kg/injection, schedule: Q01DX009 (ip), vehicle: carboxymethylcellulose (CMC) 95 % of control

O=[N+]([O-])c1ccc(Cl)c2ccncc12
inactive: [23] 102 % of control | [20] 105 % of control | [21] 105 % of control

O=C1c2ccccc2C(=O)N1CCOCCOCCN1C(=O)c2ccccc2C1=O
inactive: dose: 25.0 mg/kg/injection, schedule: Q01DX009 (ip), vehicle: saline with Tween-80 108 % of control | [23] 96 % of control and 92 % of control | [20] 88 % of control and 92 % of control | [17] 98 % of control | [21] 98 % of control | [18] 98 % of control | [19] 98 % of control

CC(=O)c1c[nH]c2c(O)ccc(O)c12
inactive: dose: 6.25 mg/kg/injection, schedule: Q04DX002 (ip), vehicle: Klucel (hydroxypropylcellulose) (HPC) 93 % of control | dose: 12.5 mg/kg/injection, schedule: Q04DX002 (ip), vehicle: Klucel (hydroxypropylcellulose) (HPC) 96 % of control | dose: 25.0 mg/kg/injection, schedule: Q04DX002 (ip), vehicle: Klucel (hydroxypropylcellulose) (HPC) 99 % of control and 107 % of control

NC(=S)c1ccc(Cl)cc1
inactive: [20] 95 % of control | dose: 100.0 mg/kg/injection, schedule: Q04DX002 (ip), vehicle: saline with Tween-80 101 % of control | [21] 110 % of control | dose: 200.0 mg/kg/injection, schedule: Q04DX002 (ip), vehicle: saline with Tween-80 97 % of control | dose: 400.0 mg/kg/injection, schedule: Q04DX002 (ip), vehicle: saline with Tween-80 97 % of control
